Entries after “also recorded” stand apart in the source; their conditions may differ.
What was measured:
[1] = Mortlock et al., 2007; cited from earlier work
[2] = test system: RPE1 cells expressing a doxycycline-inducible HORMAD1 construct; experiment: Clonogenic survival assay (SRB) in RPE1 cells with doxycycline-inducible HORMAD1; assay type: cell-based; conditions: increasing doses, 7-14 days, normalised to vehicle
Procedure: Cell confluence was analysed every 6 hours for 10 days, using incucyte software. Data are from 3 biological replicates and analysed using a two-way ANOVA. […] RPE1 cells expressing a doxycycline-inducible HORMAD1 expression construct were exposed to doxycycline or vehicle (H2O) and were exposed to 20 nM of the Aurora B inhibitor, AZD1152-HQPA. Cell confluence was analysed every 6 hours for 10 days, using incucyte software. Data are from 3 biological replicates and analysed using a two-way ANOVA. […] 7-10 days post drugging, cells were fixed, stained with SRB, and colonies were counted using Cell Profiler. […] 10 days post drugging, cells were fixed, stained with SRB, and colonies were counted using Cell Profiler. […] RPE1 cells expressing a doxycycline-inducible HORMAD1 expression construct were exposed to doxycycline or vehicle (H2O) and to increasing doses of the Aurora B inhibitor, AZD1152-HQPA. 7-10 days post drugging, cells were fixed, stained with SRB, and colonies were counted using Cell Profiler. […] SUM159 cells expressing a doxycycline-inducible HORMAD1 expression construct were exposed to doxycycline or vehicle (H2O) and to increasing doses of the Aurora B inhibitor, AZD1152-HQPA. 10 days post drugging, cells were fixed, stained with SRB, and colonies were counted using Cell Profiler.
RPE1 cells were reverse transfected with BUB1 or control siRNA particles for 3 days. Cell lysates were collected, and analysed by western blotting using anti-BUB1 and anti-β-ACTIN antibodies. […] RPE1 cells expressing a doxycycline-inducible HORMAD1 expression construct were exposed to doxycycline or vehicle, and were reverse transfected with BUB1 or control siRNA particles. 5 days post transfection, cellular viability was estimated using cell titer glo reagent and surviving fractions were calculated relative to DMSO treated cells. […] Statistical significance estimated using a one-way ANOVA with Sidak's correction. C. Western blot illustrating expression of HORMAD1 in wild-type RPE1 cells and RPE1 cells depleted of BUB1 using CRISPR. WT and BUB1 depleted RPE1 cells expressing a doxycycline-inducible HORMAD1 expression construct, were exposed to doxycycline or vehicle for 3 days. Cell lysates were collected, and analysed by SDS-PAGE and western blotting using anti-HORMAD1, anti-H3 and anti-BUB1 antibodies. […] WT and BUB1 depleted RPE1 cells expressing a doxycycline-inducible HORMAD1 expression construct were exposed to doxycycline or vehicle. 7-10 days post doxycycline induction, cells were fixed, stained with SRB, and cellular viability was estimated using SRB absorbance readings. […] Statistical significance estimated using a one-way ANOVA with Sidak's correction. […] RPE1 expressing a doxycycline-inducible HORMAD1 expression construct, were exposed to doxycycline or vehicle. […] Cells were fixed, stained with SRB, and cellular viability was estimated using SRB absorbance readings. […] Cells were imaged every 4 hours, and confluence was continually measured using incucyte software. Growth curves were plotted, based on confluence. Data represent 3 biological replicas. […] Patient-derived organoids models were grown in culture and cell lysates collected and analysed using SDS-PAGE and western blotting using anti-HORMAD1 and anti-β-ACTIN antibodies. […] Cellular viability was estimated using cell titer glo reagent and surviving fractions were calculated relative to DMSO treated cells. […] Left, dose response curves for each organoid.

[3] = test system: RPE1 cells expressing a doxycycline-inducible HORMAD1 construct; experiment: Cell viability by cell titre glo in RPE1 cells with doxycycline-inducible HORMAD1; assay type: cell-based; conditions: increasing doses, 5 days post drug, cell titre glo, normalised to vehicle
Procedure: RPE1 cells expressing a doxycycline-inducible HORMAD1 construct were treated with doxycycline or vehicle. […] Six days post HORMAD1 induction and 5 days post drug, cell viability was estimated using cell titre glo reagent. Surviving fractions were calculated (normalised to vehicle treated cells).
RPE1 and SUM159 cells expressing a doxycycline-inducible HORMAD1 construct were treated with doxycycline or vehicle. […] Surviving fractions were calculated (normalised to vehicle treated cells). (FIGS. 7a, b and 14c and d). Data from 3 replicas was analysed using 2-way ANOVA. 5 days post drugging, cell viability was estimated using cell titre glo reagent. Surviving fractions were calculated (normalised to vehicle treated cells). Data from 4 replicas was analysed using 2-way ANOVA.
RPE1 cells expressing a doxycycline-inducible HORMAD1 construct were treated with doxycycline or vehicle. […] 5 days post drugging, cell viability was estimated using cell titre glo reagent. Surviving fractions were calculated (normalised to vehicle treated cells).
RPE1 cells expressing a doxycycline-inducible HORMAD1 construct were treated with doxycycline or vehicle in order to induce HORMAD1 expression. […] Using cell titre glo as a measure of cell viability, surviving fractions were calculated (normalised to eribulin alone).
RPE1 cells expressing a doxycycline-inducible HORMAD1 construct were treated with doxycycline or vehicle. […] Using cell titre glo as a measure of cell viability, surviving fractions were calculated (normalised to olaparib alone).

[4] = molecular target: T1, AURORA A kinase (Homo sapiens, UniProt O14965); conditions: Shimomura et al., 2010; cited from earlier work
T1 sequence (O14965 1-403): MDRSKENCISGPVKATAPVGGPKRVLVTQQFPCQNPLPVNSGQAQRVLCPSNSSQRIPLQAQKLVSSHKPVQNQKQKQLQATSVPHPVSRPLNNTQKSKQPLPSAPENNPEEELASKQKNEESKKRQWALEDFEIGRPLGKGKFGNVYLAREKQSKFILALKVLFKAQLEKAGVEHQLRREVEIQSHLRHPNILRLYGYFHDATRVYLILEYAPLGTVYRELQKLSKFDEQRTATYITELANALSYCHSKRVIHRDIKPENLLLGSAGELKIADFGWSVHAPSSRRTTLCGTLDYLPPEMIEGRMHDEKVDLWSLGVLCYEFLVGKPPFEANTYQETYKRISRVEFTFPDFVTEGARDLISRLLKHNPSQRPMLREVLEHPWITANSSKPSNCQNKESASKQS

[5] = test system: RPE1 cells expressing a doxycycline-inducible HORMAD1 expression construct; experiment: Mitotic slippage by time-lapse microscopy in nocodazole-arrested RPE1 cells; assay type: cell-based
Procedure: A. Diagram of experimental outline. Cells were exposed to doxycycline for 3 days, arrested in mitosis using 300 nM nocodazole or 100 nM Paclitaxel. Mitotic cells were filmed every 4 minutes for 1200 minutes, and the time cells remained arrested in mitosis before exiting via mitotic slippage was assessed. […] RPE1 cells expressing a doxycycline-inducible HORMAD1 cDNA expression construct were exposed to doxycycline or vehicle (H2O) for three days at which point cells were exposed to 300 nM nocodazole and filmed every 4 minutes using time-lapse microscopy. The time individual cells remained arrested in mitosis was quantified and presented as the % of cells arrested in mitosis at each time point. Data reflects a total of 125 cells from 3 biological repeats and was analysed using Mantel-Cox test. C. […] The time individual cells remained arrested in mitosis was quantified and presented as the % of cells arrested in mitosis at each time point. Data reflects a total of 125 cells from 3 biological repeats and was analysed using Mantel-Cox test. […] H1299 cells expressing two individual, doxycycline-inducible, shRNA particles targeting HORMAD1 as well as a non-targeting control were grown for three days in the presence of doxycycline at which point cell lysates were generated and analysed by SDS-PAGE and western blotting using anti-HORMAD1 and anti-β-ACTIN antibodies. […] The time individual cells remained arrested in mitosis was quantified and presented as the % of cells arrested in mitosis at each time point. Data reflects a total of 90 cells from 3 biological repeats and was analysed using Mantel-Cox test with Bonferonni correction. […] Mitotic cells were filmed every 2 minutes for 400 minutes, and the time taken before cells exited mitosis via mitotic slippage was assessed. […] The time individual cells remained arrested in mitosis was quantified and presented as the % of cells arrested in mitosis at each time point. […] The time individual cells remained arrested in mitosis was quantified and presented as the % of cells arrested in mitosis at each time point. […]

[6] = test system: H1299 cells expressing shRNA targeting HORMAD1; conditions: 300 nM nocodazole 6 hours, then 200 nM reversine
Procedure: A. Diagram of experimental outline. Cells were exposed to doxycycline for 3 days, arrested in mitosis using 300 nM nocodazole or 100 nM Paclitaxel. Mitotic cells were filmed every 4 minutes for 1200 minutes, and the time cells remained arrested in mitosis before exiting via mitotic slippage was assessed. […] RPE1 cells expressing a doxycycline-inducible HORMAD1 cDNA expression construct were exposed to doxycycline or vehicle (H2O) for three days at which point cells were exposed to 300 nM nocodazole and filmed every 4 minutes using time-lapse microscopy. The time individual cells remained arrested in mitosis was quantified and presented as the % of cells arrested in mitosis at each time point. Data reflects a total of 125 cells from 3 biological repeats and was analysed using Mantel-Cox test. C. […] The time individual cells remained arrested in mitosis was quantified and presented as the % of cells arrested in mitosis at each time point. Data reflects a total of 125 cells from 3 biological repeats and was analysed using Mantel-Cox test. […] H1299 cells expressing two individual, doxycycline-inducible, shRNA particles targeting HORMAD1 as well as a non-targeting control were grown for three days in the presence of doxycycline at which point cell lysates were generated and analysed by SDS-PAGE and western blotting using anti-HORMAD1 and anti-β-ACTIN antibodies. […]

[7] = test system: MDA-MB-436 cells expressing shRNA targeting HORMAD1; conditions: 300 nM nocodazole 6 hours, then 200 nM reversine
Procedure: (§1) HeLa cells were transfected with two individual siRNA particles targeting HORMAD1 as well as a non-targeting control, grown for three days at which point cell lysates were generated and analysed SDS-PAGE and western blotting using anti-HORMAD1 and anti-H3 antibodies. […] HeLa cells were transfected with two individual siRNA particles targeting HORMAD1 as well as a non-targeting control, grown for three days at which point cells were exposed to 300 nM nocodazole and filmed every 4 minutes using time-lapse microscopy. The time individual cells remained arrested in mitosis was quantified and presented as the % of cells arrested in mitosis at each time point. Data reflects a total of 125 cells from 3 biological repeats and was analysed using Mantel-Cox test with Bonferonni correction. C. […] MDA-MB-436 cells expressing two individual, doxycycline-inducible, shRNA particles targeting HORMAD1 as well as a non-targeting control were grown for three days in the presence of doxycycline at which point cell lysates were generated and analysed SDS-PAGE and western blotting using anti-HORMAD1 and anti-6-ACTIN antibodies. […] MDA-MB-436 cells expressing two individual, doxycycline-inducible, shRNA particles targeting HORMAD1 as well as a non-targeting control were grown for three days in the presence of doxycycline at which point cells were exposed to 300 nM nocodazole and filmed every 4 minutes using time-lapse microscopy. The time individual cells remained arrested in mitosis was quantified and presented as the % of cells arrested in mitosis at each time point. Data reflects a total of 50 cells from 2 biological repeats and was analysed using Mantel-Cox test with Bonferonni correction. […] The time individual cells remained arrested in mitosis was quantified and presented as the % of cells arrested in mitosis at each time point. […] The time individual cells remained arrested in mitosis was quantified and presented as the % of cells arrested in mitosis at each time point.

[8] = test system: HeLa cells transfected with siRNA targeting HORMAD1; conditions: 300 nM nocodazole 6 hours, then 100 nM reversine
Procedure: as §1

[9] = test system: MCF10A cells expressing a doxycycline-inducible HORMAD1 cDNA expression construct; conditions: 300 nM nocodazole 6 hours, then 100 nM reversine
Procedure: as §1

[10] = test system: SUM159 cells induced to express HORMAD1; conditions: 300 nM nocodazole 6 hours, then 100 nM reversine
Procedure: as §1

CCN(CCCOc1ccc2c(Nc3cc(CC(=O)Nc4cccc(F)c4)n[nH]3)ncnc2c1)CCOP(=O)(O)O [AZD1152]
conversion of prodrug in plasma [1]: rapidly converted into AZD1152-HQPA

O=C(O)[C@]1(Cc2cccc(Nc3nccs3)n2)CC[C@@H](Oc2cccc(Cl)c2F)CC1 [MK-5108]
clonogenic survival / sensitivity of HORMAD1 expressing versus HORMAD1-negative RPE1 cells [2]: confirmed these findings; also recorded: increased Aurora inhibitor sensitivity | growth inhibition (surviving fraction) of HORMAD1 expressing versus HORMAD1-negative RPE1 cells [3]: more effectively inhibited | concentrations inhibiting AURORA A kinase activity [4]: sub-nanomolar | specificity over AURORA B and C [4]: ~200 fold

c1nc2nc(Nc3ccc(N4CCOCC4)cc3)nc(NC3CCCCC3)c2[nH]1 [reversine, 2-(4-morpholinoanilino)-6-cyclohexylaminopurine]
time before slippage in RPE1 cells expressing only the HORMA domain ([5]; 300 nM nocodazole 6 hours, then 100 nM reversine): reduced | mitotic slippage / mitotic exit in HORMAD1 induced RPE1 cells ([5]; 300 nM nocodazole arrest, then 100-200 nM reversine, 50 nM BOS172722 or AZD1152-HQPA): rapid mitotic exit; also recorded: premature mitotic slippage | mitotic slippage in H1299 cells depleted of HORMAD1 [6]: delayed mitotic slippage | mitotic slippage in MDA-MB-436 cells depleted of HORMAD1 [7]: delayed mitotic slippage | mitotic slippage in HeLa cells depleted of HORMAD1 [8]: delayed mitotic slippage | mitotic slippage in MCF10A cells induced to express HORMAD1 [9]: premature mitotic slippage | mitotic slippage in SUM159 cells induced to express HORMAD1 [10]: premature mitotic slippage

AZ-3146
clonogenic survival / sensitivity of HORMAD1 expressing versus HORMAD1-negative RPE1 cells [2]: confirmed these findings; also recorded: increased MPSI inhibitor sensitivity
